Results from patent publication US20230192661A1, “1, 4, 5, 6-TETRAHYDROPYRIMIDINE-2-AMINE DERIVATIVE” (UBE Corporation, priority 2020, published 2023).

Assays:
[1] = tested on: Human hepatic stellate cells; experiment: Active human hepatic stellate cell dedifferentiation test (decrease in ACTA2 mRNA expression); assay type: cell-based; settings: 3 days differentiation then 2 days with compound, read-out: IC50 (rate of decrease in ACTA2 mRNA expression)
Method: Human hepatic stellate cells (manufactured by ScienCell Research Laboratories, Inc., 5300) were suspended in DMEM containing 10% FBS and […] penicillin/streptomycin/amphotericin B to prepare a cell suspension of 0.5×10^5 cells/mL, which was regarded as cells at the start of differentiation. The cells at the start of differentiation were dispensed at 1 mL/well to a 12-well plate and cultured, for differentiation, for 3 days in a 5% CO2 incubator (37° C.).
The culture solution in each well was removed, and DMEM containing 10% FBS and 1% penicillin/streptomycin/amphotericin B supplemented with a test compound dissolved in DMSO (final DMSO concentration: 0.1%) was added at 1 mL/well. The resultant was further cultured for 2 days in a 5% CO2 incubator (37° C.). In Test Example 4, the same reagents as in Test Example 1 were used unless otherwise specified.
RNA in the cultured cells was extracted using NucleoSpin® RNA (manufactured by Takara Bio Inc., U0955C), and cDNA was further synthesized from the extracted RNA using Prime Script™ RT reagent Kit with gDNA Eraser (manufactured by Takara Bio Inc., RR047A). Real time PCR was performed using the synthesized cDNA, various primers and TB Green® Premix Ex Taq™ II (manufactured by Takara Bio Inc., RR820A) and using PCR Thermal Cycler Dice Real Time (manufactured by Takara Bio Inc., System Code TP910, Model Code TP900). The primers used were actin alpha 2, smooth muscle (ACTA2) primer (manufactured by Takara Bio Inc., HA136273) and glyceraldehyde-3-phosphate dehydrogenase (GAPDH) primer (manufactured by Takara Bio Inc., HA067812).
The amplification curve of PCR was analyzed by the comparative Ct method. The expression level of ACTA2 mRNA was corrected with the expression level of GAPDH mRNA. An ACTA2 mRNA expression level when DMSO was added instead of the test compound was defined as 100%, and an ACTA2 mRNA expression level in the cells at the start of differentiation was defined as 0%. The rate of decrease in ACTA2 mRNA expression by the test compound was calculated according to the following expression.
Rate of decrease in ACTA2 mRNA expression (%)=[1−{(ACTA2 mRNA expression level in the case of adding the test compound)−(ACTA2 mRNA expression level in the cells at the start of differentiation)}/{(ACTA2 mRNA expression level in the case of adding DMSO)−(ACTA2 mRNA expression level in the cells at the start of differentiation)}]×100
An IC50 value was calculated from the rate of decrease in ACTA2 mRNA expression by the test compound. A: IC50<10 nM, B: 10 nM≤IC50<50 nM, C: 50 nM≤IC50<100 nM, or D: IC50≥100 nM.

[2] = Transcellular transport test using Caco2 cell; assay type: in vitro ADME; settings: human, Caco-2; Caco2 monolayer, A-to-B, 10 μM compound, pH 7.4, 90 minutes
Method: Caco2 cells (purchased from ATCC) were cultured in DMEM medium (Thermo Fisher Scientific, Inc., 11965) containing 10% FBS (Thermo Fisher Scientific, Inc., 10082) and 1% penicillin/streptomycin/amphotericin B (Thermo Fisher Scientific, Inc., 15240). A transcellular transport test was carried out in accordance with MultiScreen Caco2 Drug Transport Assembly in a 96-well system (Application Note AN1727EN, MultiScreen Caco-2 Assay System, Merck) by partially modifying it. The Caco2 cells were inoculated at a cell density of 4×10^4 cells/well onto a micropore polycarbonate insert of a 96-well plate (Merck, Millcell-96 culture insert plate 0.4 μm pore size, well membrane area=0.11 cm^2, PSHT004S5) and cultured for 20 to 22 days, and the resulting monolayer was used in the transcellular transport test. The medium of the inoculated cells was replaced with a fresh one every 3 to 4 days.
Apical-to-basolateral (A-to-B) transport in the Caco2 cell monolayer membrane was performed by using HBSS (Thermo Fisher Scientific, Inc., 14025) medium (pH=7.4) containing 20 mM HEPES (Thermo Fisher Scientific, Inc., 15630), and adding HEPES-containing HBSS medium containing 10 μM compound (a 10 mM solution of the compound in DMSO was added at a 1000-fold dilution; final DMSO concentration: 0.1%) at 75 μL/well to the apical side and HEPES-containing HBSS medium supplemented with no compound at 250 μL/well to the basolateral side, followed by culture at 37° C. for 90 minutes. After culture, a 100 μL aliquot was collected from the basolateral side, and the concentration of a permeated compound was measured by LC-MS/MS under measurement conditions mentioned later. Papp (apparent permeability; cm/sec) was calculated from the determined concentration. Papp was determined according to the expression given below by calculating the slope (dA/dt; nmol/sec) of a straight line drawn between two points 0 minutes and zero amount of the compound in a graph plotted with an assay time (90 min) on the abscissa against the amount of the compound in the solution on the permeated side on the ordinate. As for an assay concentration, the concentration in the compound in the HEPES-containing HBSS medium containing the added compound was measured by UV-HPLC under measurement conditions mentioned later.
Papp (cm/sec)=C0×S×(dA/dt)
C0: assay concentration, S: plate membrane area=0.11 cm^2

Compound	IC50 [1] [nM]	Papp A→B at 90 min, 10 μM [2] [×10⁻⁶ cm/s]
O=C(O)C[C@H](NC(=O)CNC(=O)c1cc(NC2=NCC(F)CN2)c2cn[nH]c2c1)c1cc(C(F)(F)F)cc(C(F)(F)F)c1 (stereo partly drawn) [Example 7-(b), (3S)-3-(3,5-bis(trifluoromethyl)phenyl)-3-(2-(4-((5-fluoro-1,4,5,6-tetrahydropyrimidin-2-yl)amino)-1H-indazole-6-carboxamido)acetamido)propanoic acid]	< 10	0.5 to 1
O=C(O)C[C@H](NC(=O)CNC(=O)c1cc(NC2=NCC(F)CN2)c2cn[nH]c2c1)c1cc(-n2cccn2)cc(C(F)(F)F)c1 (stereo partly drawn) [Example 8-(b), (3S)-3-(3-(1H-pyrazol-1-yl)-5-(trifluoromethyl)phenyl)-3-(2-(4-((5-fluoro-1,4,5,6-tetrahydropyrimidin-2-yl)amino)-1H-indazole-6-carboxamido)acetamido)propanoic acid]	50 to 100	0.5 to 1
O=C(O)C[C@H](NC(=O)CNC(=O)c1cc(NC2=NCC(F)CN2)c2cn[nH]c2c1)c1cccc(C(F)(F)F)c1F (stereo partly drawn) [Example 9-(b), (3S)-3-(2-(4-((5-fluoro-1,4,5,6-tetrahydropyrimidin-2-yl)amino)-1H-indazole-6-carboxamido)acetamido)-3-(2-fluoro-3-(trifluoromethyl)phenyl)propanoic acid]	10 to 50	> 1
O=C(O)C[C@H](NC(=O)CNC(=O)c1cc(NC2=NCC(F)CN2)c2cn[nH]c2c1)c1cccc(C(F)(F)F)c1Cl (stereo partly drawn) [Example 10-(b), (3S)-3-(2-chloro-3-(trifluoromethyl)phenyl)-3-(2-(4-((5-fluoro-1,4,5,6-tetrahydropyrimidin-2-yl)amino)-1H-indazole-6-carboxamido)acetamido)propanoic acid]	≥ 100	> 1
O=C(O)C[C@H](NC(=O)CNC(=O)c1cc(NC2=NCC(F)CN2)c2cn[nH]c2c1)c1cc(C(F)(F)F)ccc1F (stereo partly drawn) [Example 11-(b), (3S)-3-(2-(4-((5-fluoro-1,4,5,6-tetrahydropyrimidin-2-yl)amino)-1H-indazole-6-carboxamido)acetamido)-3-(2-fluoro-5-(trifluoromethyl)phenyl)propanoic acid]	< 10	> 1
O=C(O)C[C@H](NC(=O)CNC(=O)c1cc(NC2=NCC(F)CN2)c2cn[nH]c2c1)c1cc(C(F)(F)F)ccc1Cl (stereo partly drawn) [Example 12-(b), (3S)-3-(2-chloro-5-(trifluoromethyl)phenyl)-3-(2-(4-((5-fluoro-1,4,5,6-tetrahydropyrimidin-2-yl)amino)-1H-indazole-6-carboxamido)acetamido)propanoic acid]	10 to 50	> 1
O=C(O)C[C@H](NC(=O)CNC(=O)c1cc(NC2=NCC(F)CN2)c2cn[nH]c2c1)c1ccc(F)c(C(F)(F)F)c1 (stereo partly drawn) [Example 13-(b), (3S)-3-(2-(4-((5-fluoro-1,4,5,6-tetrahydropyrimidin-2-yl)amino)-1H-indazole-6-carboxamido)acetamido)-3-(4-fluoro-3-(trifluoromethyl)phenyl)propanoic acid]	10 to 50	> 1
Cc1ccc([C@H](CC(=O)O)NC(=O)CNC(=O)c2cc(NC3=NCC(F)CN3)c3cn[nH]c3c2)cc1C(F)(F)F (stereo partly drawn) [Example 14-(b), (3S)-3-(2-(4-((5-fluoro-1,4,5,6-tetrahydropyrimidin-2-yl)amino)-1H-indazole-6-carboxamido)acetamido)-3-(4-methyl-3-(trifluoromethyl)phenyl)propanoic acid]	< 10	> 1
O=C(O)C[C@H](NC(=O)CNC(=O)c1cc(NC2=NCC(F)CN2)c2cn[nH]c2c1)c1cc(Cl)c(F)c(C(F)(F)F)c1 (stereo partly drawn) [Example 15-(b), (3S)-3-(3-chloro-4-fluoro-5-(trifluoromethyl)phenyl)-3-(2-(4-((5-fluoro-1,4,5,6-tetrahydropyrimidin-2-yl)amino)-1H-indazole-6-carboxamido)acetamido)propanoic acid]	< 10	> 1
COc1ccc([C@H](CC(=O)O)NC(=O)CNC(=O)c2cc(NC3=NCC(F)CN3)c3cn[nH]c3c2)cc1Br (stereo partly drawn) [Example 16-(b), (3S)-3-(3-bromo-4-methoxyphenyl)-3-(2-(4-((5-fluoro-1,4,5,6-tetrahydropyrimidin-2-yl)amino)-1H-indazole-6-carboxamido)acetamido)propanoic acid]	< 10	> 1
O=C(O)C[C@H](NC(=O)CNC(=O)c1cc(NC2=NCC(F)CN2)c2cn[nH]c2c1)c1cc(Cl)cc(Cl)c1 (stereo partly drawn) [Example 17-(b), (3S)-3-(3,5-dichlorophenyl)-3-(2-(4-((5-fluoro-1,4,5,6-tetrahydropyrimidin-2-yl)amino)-1H-indazole-6-carboxamido)acetamido)propanoic acid]	10 to 50	> 1
O=C(O)C[C@H](NC(=O)CNC(=O)c1cc(NC2=NCC(F)CN2)c2cn[nH]c2c1)c1cc(Cl)cc(Br)c1 (stereo partly drawn) [Example 18-(b), (3S)-3-(3-bromo-5-chlorophenyl)-3-(2-(4-((5-fluoro-1,4,5,6-tetrahydropyrimidin-2-yl)amino)-1H-indazole-6-carboxamido)acetamido)propanoic acid]	< 10	> 1
O=C(O)C[C@H](NC(=O)CNC(=O)c1cc(NC2=NCC(F)CN2)c2cn[nH]c2c1)c1cc(Br)cc(Br)c1 (stereo partly drawn) [Example 19-(b), (3S)-3-(3,5-dibromophenyl)-3-(2-(4-((5-fluoro-1,4,5,6-tetrahydropyrimidin-2-yl)amino)-1H-indazole-6-carboxamido)acetamido)propanoic acid]	< 10	> 1
O=C(O)C[C@H](NC(=O)CNC(=O)c1cc(NC2=NCC(F)CN2)c2cn[nH]c2c1)c1cc(Br)cc(I)c1 (stereo partly drawn) [Example 20-(b), (3S)-3-(3-bromo-5-iodophenyl)-3-(2-(4-((5-fluoro-1,4,5,6-tetrahydropyrimidin-2-yl)amino)-1H-indazole-6-carboxamido)acetamido)propanoic acid]	< 10	> 1
O=C(O)C[C@H](NC(=O)CNC(=O)c1cc(NC2=NCC(F)CN2)c2cn[nH]c2c1)c1cc(Cl)cc(I)c1 (stereo partly drawn) [Example 21-(b), (3S)-3-(3-chloro-5-iodophenyl)-3-(2-(4-((5-fluoro-1,4,5,6-tetrahydropyrimidin-2-yl)amino)-1H-indazole-6-carboxamido)acetamido)propanoic acid]	10 to 50	> 1
